According to ChEMBL document CHEMBL1201862, “PubChem BioAssay data set” (2004):
Active and inactive are the calls of the source.

What was measured:
[1] = NIH-3T3 fibroblast cytotoxicity, dose response, cytotoxicity control, cell-based, fluorescence, Alamar Blue, secondary assay (AID 2327); assay type: functional;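 further: NIH-3T3 mouse fibroblasts cultured with fluconazole at 8 µg/mL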
[2] = target: T1, Cytochrome P450 1A2 (Homo sapiens, UniProt P05177);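 further: PubChem cytochrome P450 panel assay, CYP1A2 panel member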
T1 sequence (P05177 whole entry): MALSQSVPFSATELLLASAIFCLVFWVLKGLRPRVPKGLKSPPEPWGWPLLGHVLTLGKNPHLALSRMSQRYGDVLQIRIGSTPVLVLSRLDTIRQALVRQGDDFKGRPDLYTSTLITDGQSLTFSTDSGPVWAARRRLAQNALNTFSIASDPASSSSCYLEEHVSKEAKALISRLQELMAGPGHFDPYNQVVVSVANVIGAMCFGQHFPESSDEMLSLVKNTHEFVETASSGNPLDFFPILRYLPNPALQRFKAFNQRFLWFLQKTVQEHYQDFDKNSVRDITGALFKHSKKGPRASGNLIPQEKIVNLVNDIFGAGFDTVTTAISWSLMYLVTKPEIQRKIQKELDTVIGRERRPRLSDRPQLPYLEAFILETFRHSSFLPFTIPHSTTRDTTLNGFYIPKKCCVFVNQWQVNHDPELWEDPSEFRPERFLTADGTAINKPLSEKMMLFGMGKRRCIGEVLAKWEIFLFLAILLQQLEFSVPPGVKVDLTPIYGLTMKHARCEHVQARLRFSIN

[3] = fluconazole-exposed Candida albicans growth modulators – fluorescence, retest, confirmation (AID 2467); assay type: functional, cell-based
[4] = loss of viability in HepG2 cells – cell-based, CellTiter-Glo, cherry-picked, cytotoxicity control for Shn3 inhibitor project, dose response (AID 624134); assay type: functional
[5] = luciferase reporter signal suppression in cells – H4 neuroglioma cells, luminescence, dose response (AID 1990); assay type: functional, cell-based
[6] = target: Voltage-gated inwardly rectifying potassium channel KCNH2 (Homo sapiens, UniProt Q12809); assay: concentration-dependent hERG rescue from blockers – cell-based, thallium flux, dose response (AID 2121); assay type: ADME
Chain of Voltage-gated inwardly rectifying potassium channel KCNH2 (Q12809 whole entry): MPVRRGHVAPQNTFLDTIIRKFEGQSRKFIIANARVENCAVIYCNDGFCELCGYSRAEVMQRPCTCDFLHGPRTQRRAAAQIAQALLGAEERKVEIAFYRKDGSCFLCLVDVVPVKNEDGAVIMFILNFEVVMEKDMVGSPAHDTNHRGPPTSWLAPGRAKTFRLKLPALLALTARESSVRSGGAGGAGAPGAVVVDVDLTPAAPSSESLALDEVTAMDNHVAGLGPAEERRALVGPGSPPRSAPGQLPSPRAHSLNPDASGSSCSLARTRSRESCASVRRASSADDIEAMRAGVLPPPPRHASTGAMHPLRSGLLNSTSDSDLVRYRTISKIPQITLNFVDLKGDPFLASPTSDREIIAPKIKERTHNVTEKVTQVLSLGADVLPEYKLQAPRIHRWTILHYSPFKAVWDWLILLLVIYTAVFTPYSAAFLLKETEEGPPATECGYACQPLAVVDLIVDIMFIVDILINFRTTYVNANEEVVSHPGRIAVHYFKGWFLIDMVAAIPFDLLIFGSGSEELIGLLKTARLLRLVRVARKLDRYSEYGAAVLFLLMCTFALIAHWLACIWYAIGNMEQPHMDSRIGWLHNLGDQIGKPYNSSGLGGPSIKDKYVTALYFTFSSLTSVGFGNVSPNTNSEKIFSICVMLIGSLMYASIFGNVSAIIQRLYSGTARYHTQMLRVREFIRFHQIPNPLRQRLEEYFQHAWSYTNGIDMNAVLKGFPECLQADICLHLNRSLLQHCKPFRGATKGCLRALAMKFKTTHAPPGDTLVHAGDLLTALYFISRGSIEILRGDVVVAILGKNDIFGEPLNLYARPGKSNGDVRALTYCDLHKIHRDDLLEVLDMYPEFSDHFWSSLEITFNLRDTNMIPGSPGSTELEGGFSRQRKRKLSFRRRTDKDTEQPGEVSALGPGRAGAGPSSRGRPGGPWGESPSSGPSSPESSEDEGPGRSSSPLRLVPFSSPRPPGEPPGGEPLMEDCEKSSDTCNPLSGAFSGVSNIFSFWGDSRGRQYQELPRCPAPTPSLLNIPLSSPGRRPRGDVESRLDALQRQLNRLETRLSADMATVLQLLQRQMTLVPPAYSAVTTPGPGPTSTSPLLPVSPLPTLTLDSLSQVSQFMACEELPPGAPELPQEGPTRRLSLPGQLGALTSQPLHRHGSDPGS

[7] = Counterscreen for AddAB inhibitors: absorbance-based bacterial cell-based high throughput dose response assay for inhibitors of bacterial viability. [Related pubchem assays (depositor defined):AID435030, AID449728, AID449731, AID488942, AID488955, AID488956]; assay type: functional
[8] = alpha-synuclein stem-loop luciferase translation blockers – H4 neuroglioma cells, luminescence, confirmation (AID 1988); assay type: functional, cell-based
[9] = non-specific 3'UTR reporter inhibition in Clone20-Shn3RL – cell-based, Renilla luciferase, cherry-picked, counter-screen for Shn3 inhibitor project, dose response (AID 624133); assay type: functional
[10] = target: Exodeoxyribonuclease V (Escherichia coli (strain K12), UniProt P04993+P07648+P08394); assay: RecBCD inhibition via phage-restricted bacterial growth – absorbance, V66 E. coli, mutant T4 phage, counter-screen for AddAB inhibitor project, dose response (AID 492957); assay type: functional, cell-based, Escherichia coli str. K-12 substr. MG1655
[11] = target: Cytochrome P450 2D6 (Homo sapiens, UniProt P10635);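 further: CYP2D6 member of a cytochrome P450 panel assay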
Chain of Cytochrome P450 2D6 (P10635 whole entry): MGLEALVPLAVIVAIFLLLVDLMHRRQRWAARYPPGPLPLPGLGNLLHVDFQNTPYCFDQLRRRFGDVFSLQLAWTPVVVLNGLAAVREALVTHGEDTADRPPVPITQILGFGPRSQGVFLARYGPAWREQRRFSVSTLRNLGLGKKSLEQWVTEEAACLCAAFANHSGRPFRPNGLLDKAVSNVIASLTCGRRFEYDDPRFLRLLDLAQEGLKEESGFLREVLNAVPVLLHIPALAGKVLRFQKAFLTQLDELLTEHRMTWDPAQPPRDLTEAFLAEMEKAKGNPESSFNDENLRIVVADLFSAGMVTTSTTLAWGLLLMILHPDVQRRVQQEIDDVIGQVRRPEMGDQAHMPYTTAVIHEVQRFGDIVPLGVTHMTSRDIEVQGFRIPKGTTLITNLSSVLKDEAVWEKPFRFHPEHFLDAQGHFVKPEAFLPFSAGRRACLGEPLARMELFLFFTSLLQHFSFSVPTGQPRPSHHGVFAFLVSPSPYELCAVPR

[12] = Luminescence Cell-Based Dose Response HTS to Identify Inhibitors of 5'UTR Stem-Loop Driven Prion Protein mRNA Translation in H4 Neuroglioblastoma Cells. [Related pubchem assays: 1827 (Project Summary), 1813 (Primary HTS)]; assay type: functional
[13] = Luminescence Cell-Based Dose Retest to Confirm Inhibitors of Cancer Stem Cells. [Related pubchem assays (depositor defined):AID2717, AID2721]; assay type: functional; conditions: Homo sapiens
[14] = reduction of Shn3 3'UTR-driven luciferase in osteoblasts – cell-based, Clone20 osteoblasts, firefly luciferase, cherry-picked, dose response (AID 624132); assay type: functional;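 further: firefly luciferase luminescence from reporter carrying the Shn3 3'UTR in osteoblasts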
[15] = target: T2, Probable nicotinate-nucleotide adenylyltransferase (Staphylococcus aureus (strain N315), UniProt P65502); assay type: functional, Staphylococcus aureus subsp. aureus N315; conditions: read-out: IC50_Mean;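 on IC50 Mean: confirmatory dose-response retesting of NadD inhibitor hits first found in an ultra-high-throughput screen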
T2 sequence (P65502 whole entry): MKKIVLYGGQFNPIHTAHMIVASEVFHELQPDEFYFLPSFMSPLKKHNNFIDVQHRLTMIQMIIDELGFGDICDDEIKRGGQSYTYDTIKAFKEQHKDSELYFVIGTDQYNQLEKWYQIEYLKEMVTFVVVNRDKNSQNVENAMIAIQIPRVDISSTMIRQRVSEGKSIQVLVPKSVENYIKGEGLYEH

[16] = target: Genome polyprotein (Hepatitis C virus, UniProt Q2Q167); assay: disruption of hepatitis C core self-association – biochemical, TR-FRET, dose response (AID 2159); parameters: species or system Hepacivirus hominis;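 further: blocks dimerization of HCV core protein measured by TR-FRET between tagged core106 pairs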
Chain of Genome polyprotein (Q2Q167 whole entry): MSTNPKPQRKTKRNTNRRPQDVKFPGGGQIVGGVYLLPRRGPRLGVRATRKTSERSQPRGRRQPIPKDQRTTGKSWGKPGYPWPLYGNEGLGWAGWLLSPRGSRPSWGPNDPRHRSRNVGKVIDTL

[17] = target: T2, Probable nicotinate-nucleotide adenylyltransferase; assay type: functional, Staphylococcus aureus subsp. aureus N315
[18] = target: T3, Carboxy-terminal domain RNA polymerase II polypeptide A small phosphatase 1 (Homo sapiens, UniProt Q9GZU7); assay: CTDSP1 inhibitors, concentration-response, biochemical, absorbance readout, ultra-high-throughput screen actives (AID 540297); assay type: functional
T3 sequence (Q9GZU7 whole entry): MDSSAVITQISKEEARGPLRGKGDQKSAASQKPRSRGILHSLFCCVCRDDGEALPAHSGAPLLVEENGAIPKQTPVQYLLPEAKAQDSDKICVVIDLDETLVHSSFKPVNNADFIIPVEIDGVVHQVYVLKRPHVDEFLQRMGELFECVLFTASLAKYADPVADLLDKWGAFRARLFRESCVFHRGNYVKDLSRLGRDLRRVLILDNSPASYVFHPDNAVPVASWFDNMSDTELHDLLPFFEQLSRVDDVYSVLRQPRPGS

[19] = target: T4, Tyrosine-protein phosphatase non-receptor type 7 (Homo sapiens, UniProt P35236); assay: HePTP tyrosine phosphatase activity blockers – biochemical, absorbance, leukemia target, primary screen (AID 521); assay type: functional
T4 sequence (P35236 whole entry): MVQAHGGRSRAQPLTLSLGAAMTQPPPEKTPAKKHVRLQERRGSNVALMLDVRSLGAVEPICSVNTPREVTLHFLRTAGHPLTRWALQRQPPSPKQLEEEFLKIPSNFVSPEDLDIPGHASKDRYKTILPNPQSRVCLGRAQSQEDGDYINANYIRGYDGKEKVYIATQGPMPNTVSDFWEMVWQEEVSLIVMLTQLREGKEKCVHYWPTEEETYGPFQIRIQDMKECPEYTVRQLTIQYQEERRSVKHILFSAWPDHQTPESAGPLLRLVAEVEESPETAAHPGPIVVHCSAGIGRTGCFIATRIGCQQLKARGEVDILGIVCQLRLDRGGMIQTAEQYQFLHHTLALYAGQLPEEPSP

[20] = Fluorescence Cell-Based Dose Response to Identify Inhibitors of Thrombin Receptor-Activating Peptide SFLLRN-Mediated P-Selectin Induction on Platelets. [Related pubchem assays: 1663 (Primary HTS), 1889 (retest at dose ), 1891 (counterscreen), 1678 (Project Summary)]; assay type: functional
[21] = Luminescence Cell-Based Dose Confirmation HTS to Identify Inhibitors of Platelet Dense Granule Release. [Related pubchem assays: 1663 (Primary HTS), 1678 (Summary of Project)]; assay type: functional
[22] = target: Luciferin 4-monooxygenase (Photinus pyralis, UniProt P08659); assay: inhibition of purified Photinus pyralis luciferase – biochemical, luminescence, dose response (AID 1891)
Chain of Luciferin 4-monooxygenase (P08659 whole entry): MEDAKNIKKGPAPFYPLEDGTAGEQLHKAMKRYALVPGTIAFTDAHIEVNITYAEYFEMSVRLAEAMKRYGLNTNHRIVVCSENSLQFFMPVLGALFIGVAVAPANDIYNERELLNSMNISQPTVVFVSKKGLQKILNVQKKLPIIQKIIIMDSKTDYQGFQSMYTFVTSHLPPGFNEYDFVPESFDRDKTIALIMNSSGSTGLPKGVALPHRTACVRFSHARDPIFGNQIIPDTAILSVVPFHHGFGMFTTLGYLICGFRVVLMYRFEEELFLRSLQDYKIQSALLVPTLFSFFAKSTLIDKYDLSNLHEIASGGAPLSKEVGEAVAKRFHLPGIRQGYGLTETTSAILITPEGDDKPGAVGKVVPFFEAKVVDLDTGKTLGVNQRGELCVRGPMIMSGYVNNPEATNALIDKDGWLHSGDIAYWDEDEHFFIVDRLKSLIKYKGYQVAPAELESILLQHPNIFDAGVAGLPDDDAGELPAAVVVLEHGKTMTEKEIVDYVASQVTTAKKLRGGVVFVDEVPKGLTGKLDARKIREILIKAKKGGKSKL

[23] = target: Photoreceptor-specific nuclear receptor (Homo sapiens, UniProt Q9Y5X4); assay: ligands suppressing NR2E3 nuclear receptor activity – biochemical, TR-FRET, dose response (AID 463256); assay type: functional
Chain of Photoreceptor-specific nuclear receptor (Q9Y5X4 whole entry): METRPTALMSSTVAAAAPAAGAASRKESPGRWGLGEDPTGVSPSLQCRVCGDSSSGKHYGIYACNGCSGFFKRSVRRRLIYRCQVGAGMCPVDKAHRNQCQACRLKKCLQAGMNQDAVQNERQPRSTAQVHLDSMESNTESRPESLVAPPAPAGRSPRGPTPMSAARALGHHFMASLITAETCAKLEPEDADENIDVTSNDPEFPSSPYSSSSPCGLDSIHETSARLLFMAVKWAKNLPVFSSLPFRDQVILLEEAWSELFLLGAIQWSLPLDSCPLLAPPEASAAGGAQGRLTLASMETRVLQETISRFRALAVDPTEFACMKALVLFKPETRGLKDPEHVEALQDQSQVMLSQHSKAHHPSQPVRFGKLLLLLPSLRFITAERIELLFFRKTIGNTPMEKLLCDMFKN

[24] = target: Peroxisome proliferator-activated receptor gamma/Nuclear receptor corepressor 2 (Homo sapiens, UniProt P37231+Q9Y618); assay: Counterscreen for NR2E3 inverse agonists: TR-FRET-based biochemical high throughput dose response assay to identify inverse agonists of the interaction between peroxisome proliferator-activated receptor gamma (PPARg) and nuclear receptor co-repressor 2 (NCOR2).; assay type: functional
[25] = HCT116 cell viability decrease, GSK3B pretreatment – CellTiter-Glo, IC50, dose response (AID 1117339); assay type: functional; conditions: HCT-116
[26] = cytotoxicity toward HT-29 cells – cell-based, CellTiter-Glo luminescence, IC50, dose response (AID 1117330); assay type: functional
[27] = cytotoxicity toward Colo320 cells – cell-based, CellTiter-Glo luminescence, IC50, dose response (AID 1117334); assay type: functional; conditions: COLO 320
[28] = RKO cell viability reduction, dose response, CellTiter-Glo luminescence (AID 1117322); assay type: functional
[29] = rise of 2N DNA cells, HeLa – IC50, dose response (AID 1117349); assay type: functional, cell-based
[30] = Reduced DLD-1 viability, concentration-response, CellTiter-Glo luminescence (AID 1117352); assay type: functional
[31] = cytotoxicity toward HCT116 cells – cell-based, CellTiter-Glo luminescence, IC50, dose response (AID 1117332); assay type: functional; conditions: HCT-116
[32] = CellTiter-Glo luminescence survival assay, SW480 colon tumor line, concentration-response curve, half-maximal inhibitory concentration (AID 1117338); assay type: functional
[33] = SNU-C1 cell viability reduction, dose response, CellTiter-Glo luminescence (AID 1117323); assay type: functional, cell-based
[34] = rise of 4N DNA cells, HeLa – IC50, dose response (AID 1117351); assay type: functional, cell-based
[35] = target: NADPH oxidase 1 (Homo sapiens, UniProt Q9Y5S8); assay type: functional, cell-based;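 further: Cell-based assay with luminescence read-out, IC50 derived from inhibitor dose-response curves; intracellular ROS from endogenous NOX1 in intact HT29 colon cancer cells; potency of inhibitors that lower the ROS luminescence signal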
Chain of NADPH oxidase 1 (Q9Y5S8 whole entry): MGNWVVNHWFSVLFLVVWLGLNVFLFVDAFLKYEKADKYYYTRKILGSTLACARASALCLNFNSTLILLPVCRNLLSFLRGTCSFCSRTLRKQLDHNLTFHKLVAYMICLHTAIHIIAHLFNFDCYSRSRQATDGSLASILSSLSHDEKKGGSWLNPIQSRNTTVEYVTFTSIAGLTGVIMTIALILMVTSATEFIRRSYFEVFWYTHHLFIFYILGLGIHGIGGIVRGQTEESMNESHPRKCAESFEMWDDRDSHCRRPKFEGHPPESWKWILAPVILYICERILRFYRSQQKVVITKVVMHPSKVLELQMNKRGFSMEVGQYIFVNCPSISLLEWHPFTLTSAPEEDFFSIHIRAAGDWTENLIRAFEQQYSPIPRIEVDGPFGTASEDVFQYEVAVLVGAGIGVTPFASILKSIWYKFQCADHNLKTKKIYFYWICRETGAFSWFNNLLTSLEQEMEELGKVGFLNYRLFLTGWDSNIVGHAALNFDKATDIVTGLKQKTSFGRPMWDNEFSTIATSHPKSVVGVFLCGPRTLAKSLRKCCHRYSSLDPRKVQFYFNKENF

## Cc1cc([N+](=O)[O-])ccc1-c1ccc(C2Nc3ccccc3C(=O)N2O)o1 (stereo unspecified)
[1]
  EC50: > 160 µM (inconclusive)
[2]
  AC50: 25.1 µM (inconclusive)
[3]
  EC50: 1.31 µM (active)
[4]
  AC50: 32.9 µM (active)
[5]
  EC50: 10.3 µM (active)
[6]
  EC50: 2.58 µM (active)
[7]
  IC50: > 119 µM (inactive)
[8]
  EC50: 8.61 µM (active)
[9]
  AC50: 11.3 µM (active)
[10]
  IC50: > 119 µM (inactive)
[11]
  AC50: 20 µM (inconclusive)
[12]
  EC50: 10.4 µM (active)
[13]
  AC50: 5.3 µM (active)
[14]
  AC50: 3.32 µM (active)

## Cc1ccc(NC(=O)c2cc(-c3ccco3)nc3ccccc23)cc1S(=O)(=O)N1CCOCC1
[15]
  IC50: 26.6 µM (active)
[16]
  IC50: > 49.8 µM (not active)
[17]
  IC50: 8.01 µM (active)
[18]
  IC50: 5.51 µM (active)

## Cc1c(C(=O)N2CCOCC2)[nH]c2ccc(OCc3ccccc3)cc12
[19]
  IC50: > 100 µM (not active)

## COc1cc2c(cc1OC)-c1cc(N3CCCCCC3)nc(=O)n1CC2
[20]
  EC50: < 0.3 µM (active)
[21]
  EC50: 1.66 µM (active)
[22]
  EC50: > 112 µM (not active)

## Cn1c(SCC(=O)Nc2cccc(F)c2)nnc1-c1cc2ccccc2o1
[23]
  IC50: 2.61 µM (active)
[24]
  IC50: 1.67 µM (active)

## O=C1[C@H]2CCCC[C@H]2C(=O)N1CCCCN1CCN(c2nsc3ccccc23)CC1
[25]
  IC50: 1.67 µM (active)
[26]
  IC50: 2.01 µM (active)
[27]
  IC50: 13.2 µM (inactive)
[28]
  IC50: 0.546 µM (active)
[29]
  IC50: > 10 µM (inactive)
[30]
  IC50: 8.24 µM (inactive)
[31]
  IC50: 2.06 µM (active)
[32]
  IC50: 5.91 µM (inactive)
[33]
  IC50: 9.37 µM (inactive)
[13]
  AC50: 3.47 µM (active)
[34]
  IC50: > 10 µM (inactive)

## O=[N+]([O-])c1ccc(-c2nc(-c3ccccc3)c(-c3ccccc3)[nH]2)cc1
[35]
  IC50: > 17 µM (not active)
